Assay results taken from the RepoRT retention time repository.

Test: RP, Waters ACQUITY UPLC HSS T3, 100 × 2.1 mm, 1.8 µm, 0.3 mL/min, estimated dead time 0.73 min; A: water + 0.1% formic acid, pH 3; B: methanol + 0.1% formic acid, pH 3; gradient (min/%B) 0/1 1/15 4/35 7/95 9/95 10/1 14/95
Conditions: stereoisomer not certain

Compound | LC retention time
O=[N+]([O-])c1ccccc1O [2-nitrophenol] | 8.45 min
CC12CCC3c4ccc(O)cc4CCC3C1CCC2O (configuration not stated) [estradiol] | 19.7 min
CC(=O)C1CCC2C3CCC4=CC(=O)CCC4(C)C3CCC12C (configuration not stated) [progesterone] | 10.1 min
Cc1cc2nc3c(=O)[nH]c(=O)nc-3n(CC(O)C(O)C(O)CO)c2cc1C (configuration not stated) [riboflavin] | 7.22 min
O=c1ccn(C2OC(CO)C(O)C2O)c(=O)[nH]1 (configuration not stated) [uridine] | 2.2 min

More lines, now with the values ahead:

LC retention time | Compound
1.07 min | O=C1CC(C(=O)O)NC(=O)N1 [L-dihydroorotic acid]
8.41 min | O=C(O)CC(O)(CC(=O)O)C(=O)O [citric acid monohydrate]
2.53 min | CC(C)CC(N)C(=O)O (configuration not stated) [leucine]
1.21 min | CSCCC(N)C(=O)O (configuration not stated) [methionine]
4.45 min | NC(Cc1ccccc1)C(=O)O (configuration not stated) [phenylalanine]
11 min | CC(CCC(=O)NCC(=O)O)C1CCC2C3C(O)CC4CC(O)CCC4(C)C3CC(O)C12C (configuration not stated) [sodium glycocholate hydrate]
5.45 min | NC(Cc1c[nH]c2ccccc12)C(=O)O (configuration not stated) [tryptophan]
